Data as given in article PMC11729425 (ACS Pharmacology & Translational Science, 2024).

What was measured:
[1] = tested on: Aged C57BL/6J mice; test: Hanging test; format: in vivo, C57BL/6JRj mice; conditions: 1 mg/kg in the food, week 7, normalized to BW
Procedure: Mice were allowed to acclimate to the testing room for 30 min before the experiment. Each mouse was positioned on a wire grid, gripping it with all four limbs. The grid was then inverted, causing the mouse to hang, and the duration it could maintain this position was recorded. The maximum trial length was set at 2 min and 30 s (150 s). The latency to fall was measured five times for each mouse, with 10 min intervals between trials.

[2] = tested on: N2 wild-type C. elegans; test: Lifespan measurements in C. elegans; format: in vivo, Caenorhabditis elegans
Procedure: Lifespan assays were conducted at 20 °C unless otherwise noted. Synchronous populations were generated by hypochlorite treatment of gravid adults to obtain tightly synchronized embryos, which were then allowed to develop into adulthood under defined conditions. 20–25 worms were placed on NGM plates containing 5-FU seeded with E. coli OP50 bacteria. ALT-007 at a final concentration of 5 μM was added to the top of the plates diluted in DMSO, and DMSO was used at the same concentration as a control. Each condition included at least 170 animals per experiment.
The day of egg collection was designated as t = 0. Animals were transferred to fresh plates every 3 days and examined daily for touch-provoked movement and pharyngeal pumping, until death. Worms that died due to internal hatching of eggs, extruded gonads, or desiccation from crawling off the plate were censored accordingly. Each survival assay was repeated at least twice, and figures show representative results.
Survival curves were generated using the Kaplan–Meier product-limit method. The log-rank (Mantel–Cox) test was used to assess differences in survival and calculate P values. Statistical analyses and lifespan values were determined using GraphPad Prism 10 software. Complete lifespan statistics are presented in Supporting Information Table 1.

[3] = parameters: method as in PMID 29669694; conditions: compared to Myriocin; cited from earlier work

Question: For `COc1cc(C(=O)N2CC[C@H](NC(=O)c3ccccc3OC(F)(F)F)c3c2cnn3C(C)C)cnc1OC` [ALT-007], which maximum hanging time [1] is on record?
Answer: The maximum hanging time was “increased compared to aged control mice”.

Question: And the “toxicity for animal development” value ([2]; C. elegans, administration at the embryo stage)?
Answer: Its value is “nontoxic for animal development”.

Question: And the maximal lifespan ([2]; N2 wild-type, 5 μM, 20 °C)?
Answer: The maximal lifespan was “significantly increased”.

Question: What about the median lifespan ([2]; N2 wild-type, 5 μM, 20 °C) of the same molecule?
Answer: The median lifespan was “significantly increased”.

Question: And the metabolic stability [3]?
Answer: Its metabolic stability is “improved”.
